{
  "source": "the NIST ThermoML archive (doi:10.1016/j.fluid.2016.11.022)",
  "key": {"[1]": {"details": "Liquid; for self diffusion coefficient: NMR"}, "[2]": {"test": "xn = mol fraction of the nth substance listed", "details": "343.15 K, Liquid; for viscosity: Oscillating piston [Cambridge Applied Systems Model]; for molar volume: High-pressure cell with syringe pump"}},
  "note": "Numbers after ± are expanded uncertainties.",
  "data": [
    {"smiles": "CCCCCC[n+]1ccn(C)c1.O=S(=O)([N-]S(=O)(=O)C(F)(F)F)C(F)(F)F", "values": [
      {"measurement": "self diffusion coefficient", "setting": "[1]; 298.15 K, 100 kPa", "value": "1.79e-11", "unit": "m2/s"},
      {"measurement": "self diffusion coefficient", "setting": "[1]; 323.15 K, 100 kPa", "value": "5.54e-11", "unit": "m2/s"},
      {"measurement": "self diffusion coefficient", "setting": "[1]; 343.15 K, 100 kPa", "value": "1.07e-10", "unit": "m2/s"},
      {"measurement": "viscosity", "setting": "[1]; 343.15 K, 100 kPa, Oscillating piston [Cambridge Applied Systems Model]", "value": "14.07 ± 0.35", "unit": "mPa·s"}
    ]},
    {"smiles": "CCCCCC[n+]1ccn(C)c1.O=S(=O)([N-]S(=O)(=O)C(F)(F)F)C(F)(F)F", "note": "+ FCC(F)(F)F", "values": [
      {"measurement": "viscosity", "setting": "[2]; 100 kPa, x2 = 0", "value": "14.07 ± 0.35", "unit": "mPa·s"}
    ]},
    {"smiles": "FCC(F)(F)F", "note": "[1,1,1,2-tetrafluoroethane]", "values": [
      {"measurement": "self diffusion coefficient", "setting": "[1]; 298.15 K, 670 kPa", "value": "5.95e-09", "unit": "m2/s"}
    ]},
    {"smiles": "FCC(F)(F)F", "note": "[1,1,1,2-tetrafluoroethane] + CCCCCC[n+]1ccn(C)c1.O=S(=O)([N-]S(=O)(=O)C(F)(F)F)C(F)(F)F", "values": [
      {"measurement": "molar volume", "setting": "[2]; 84 kPa, x1 = 0.0397", "value": "0.0003358 ± 3.2e-06", "unit": "m3/mol"},
      {"measurement": "molar volume", "setting": "[2]; 212 kPa, x1 = 0.1086", "value": "0.0003159 ± 2.8e-06", "unit": "m3/mol"},
      {"measurement": "viscosity", "setting": "[2]; 310 kPa, x1 = 0.148", "value": "12.62 ± 0.31", "unit": "mPa·s"},
      {"measurement": "molar volume", "setting": "[2]; 395 kPa, x1 = 0.1956", "value": "0.0002928 ± 2.6e-06", "unit": "m3/mol"},
      {"measurement": "viscosity", "setting": "[2]; 610 kPa, x1 = 0.276", "value": "11.97 ± 1.3", "unit": "mPa·s"},
      {"measurement": "molar volume", "setting": "[2]; 615 kPa, x1 = 0.2904", "value": "0.0002669 ± 2.2e-06", "unit": "m3/mol"},
      {"measurement": "viscosity", "setting": "[2]; 850 kPa, x1 = 0.364", "value": "9.33 ± 1.6", "unit": "mPa·s"},
      {"measurement": "molar volume", "setting": "[2]; 971 kPa, x1 = 0.4272", "value": "0.0002313 ± 1.8e-06", "unit": "m3/mol"},
      {"measurement": "viscosity", "setting": "[2]; 1130 kPa, x1 = 0.459", "value": "8.09 ± 0.18", "unit": "mPa·s"},
      {"measurement": "molar volume", "setting": "[2]; 1320 kPa, x1 = 0.5508", "value": "0.0001984 ± 1.4e-06", "unit": "m3/mol"},
      {"measurement": "viscosity", "setting": "[2]; 1470 kPa, x1 = 0.575", "value": "7.06 ± 0.3", "unit": "mPa·s"},
      {"measurement": "molar volume", "setting": "[2]; 1732 kPa, x1 = 0.6867", "value": "0.0001653 ± 1e-06", "unit": "m3/mol"},
      {"measurement": "molar volume", "setting": "[2]; 1956 kPa, x1 = 0.777", "value": "0.0001436 ± 8e-07", "unit": "m3/mol"},
      {"measurement": "molar volume", "setting": "[2]; 2016 kPa, x1 = 0.8075", "value": "0.0001367 ± 6e-07", "unit": "m3/mol"},
      {"measurement": "viscosity", "setting": "[2]; 2030 kPa, x1 = 0.813", "value": "3.24 ± 0.07", "unit": "mPa·s"},
      {"measurement": "molar volume", "setting": "[2]; 2064 kPa, x1 = 0.8427", "value": "0.0001289 ± 6e-07", "unit": "m3/mol"},
      {"measurement": "molar volume", "setting": "[2]; 2075 kPa, x1 = 0.8572", "value": "0.0001265 ± 4e-07", "unit": "m3/mol"}
    ]}
  ]
}
